Tests used:
[1] = biological target: B1 bradykinin receptor (Homo sapiens) (UniProt P46663); test: B1/H Eurofins SafetyScreen44 (BI); conditions: Compound concentration 10.0 uM
[2] = biological target: Gastrin/cholecystokinin type B receptor (Homo sapiens) (UniProt P32239); test: CCKB/H Eurofins SafetyScreen44 (BI); conditions: Compound concentration 10.0 uM
[3] = biological target: Muscarinic acetylcholine receptor M3 (Homo sapiens, UniProt P20309); test: GPCRScan assay: inhibition of M3; parameters: radioligand conc. used [nm] 0.3 – 1.0, parental cells stable CHO
[4] = biological target: D(1A) dopamine receptor (Homo sapiens) (UniProt P21728); test: D1/HU Eurofins SafetyScreen44 (BI); conditions: Compound concentration 10.0 uM
[5] = biological target: Glutamate receptor ionotropic, NMDA 2A (Rattus norvegicus) (UniProt Q00959); test: NMDAPHSI/R Eurofins SafetyScreen44 (BI); conditions: Compound concentration 10.0 uM
[6] = biological target: 5-hydroxytryptamine receptor 2B (Homo sapiens) (UniProt P41595); conditions: Compound concentration 10.0 uM
[7] = biological target: Sodium-dependent noradrenaline transporter (Homo sapiens) (UniProt P23975); test: NETRANS/H Eurofins SafetyScreen44 (BI); conditions: Compound concentration 10.0 uM
[8] = biological target: 5-hydroxytryptamine receptor 2B (Homo sapiens) (UniProt P41595); test: 5HT2B/HU Eurofins SafetyScreen44 (BI); conditions: Compound concentration 10.0 uM
[9] = biological target: Estrogen receptor (Homo sapiens) (UniProt P03372); test: ERALPHA/H Eurofins SafetyScreen44 (BI); conditions: Compound concentration 10.0 uM
[10] = biological target: Substance-P receptor (Homo sapiens) (UniProt P25103); test: NK1/HU Eurofins SafetyScreen44 (BI); conditions: Compound concentration 10.0 uM
[11] = biological target: Voltage-dependent L-type calcium channel subunit alpha-1C (Rattus norvegicus, UniProt P22002); test: CA+/DILSI/RA Eurofins SafetyScreen44 (BI); conditions: compound concentration 10 uM, read-out: % Ctrl
[12] = biological target: 3',5'-cyclic-AMP phosphodiesterase 4A (Rattus norvegicus) (UniProt P54748); test: ROLIPRAM/R Eurofins SafetyScreen44 (BI); conditions: Compound concentration 10.0 uM
[13] = biological target: Neuropeptide Y receptor type 1 (Homo sapiens) (UniProt P25929); test: Y1/HU Eurofins SafetyScreen44 (BI); conditions: Compound concentration 10.0 uM
[14] = biological target: GABA-A receptor; anion channel; test: GPCRScan assay: inhibition of GABAA/BZP; format: protein-complex assay, Rattus norvegicus; parameters: radioligand conc. used [nm] 0.6 – 4.0, parental cells brain tissue
[15] = biological target: T1, Alpha-2A adrenergic receptor (Homo sapiens) (UniProt P08913); test: ALPHA2A/H Eurofins SafetyScreen44 (BI)
T1 sequence (whole entry): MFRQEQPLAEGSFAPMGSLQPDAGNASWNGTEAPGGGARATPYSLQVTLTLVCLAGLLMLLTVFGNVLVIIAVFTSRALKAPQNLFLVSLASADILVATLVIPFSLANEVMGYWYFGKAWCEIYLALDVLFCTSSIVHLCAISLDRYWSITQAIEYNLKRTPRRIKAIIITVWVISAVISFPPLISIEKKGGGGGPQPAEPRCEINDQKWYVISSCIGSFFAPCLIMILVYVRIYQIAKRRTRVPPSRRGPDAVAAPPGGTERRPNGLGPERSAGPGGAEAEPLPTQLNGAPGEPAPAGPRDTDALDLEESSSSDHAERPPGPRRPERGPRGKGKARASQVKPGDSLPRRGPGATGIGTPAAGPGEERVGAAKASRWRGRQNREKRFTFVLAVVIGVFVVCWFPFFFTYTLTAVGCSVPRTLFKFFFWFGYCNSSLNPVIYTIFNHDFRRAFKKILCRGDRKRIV

[16] = biological target: Endothelin receptor type B (Homo sapiens) (UniProt P24530); test: ETB/HUM Eurofins SafetyScreen44 (BI); conditions: Compound concentration 10.0 uM
[17] = biological target: Sodium-dependent dopamine transporter (Homo sapiens) (UniProt Q01959); test: DATRANS/HUM Eurofins SafetyScreen44 (BI); conditions: Compound concentration 10.0 uM
[18] = biological target: Beta-2 adrenergic receptor (Homo sapiens) (UniProt P07550); test: BETA2/HUM Eurofins SafetyScreen44 (BI); conditions: filed as antagonist, Compound concentration 10.0 uM
[19] = biological target: Neuronal acetylcholine receptor; alpha4/beta2 (Homo sapiens) (UniProt P17787+P43681); test: N_NEURO_A4B2 Eurofins SafetyScreen44 (BI); format: protein-complex assay; conditions: filed as agonist, Compound concentration 10.0 uM
[20] = biological target: Adenosine receptor A2a (Homo sapiens) (UniProt P29274); test: A2A/H Eurofins SafetyScreen44 (BI); conditions: filed as antagonist, Compound concentration 10.0 uM
[21] = biological target: Cannabinoid receptor 1 (Homo sapiens) (UniProt P21554); test: CB1(HU)_AGON Eurofins SafetyScreen44 (BI); conditions: filed as agonist; Compound concentration 10.0 uM
[22] = biological target: Tyrosine-protein kinase Lck (Homo sapiens) (UniProt P06239); test: LCK_CE Eurofins SafetyScreen44 (BI); conditions: Compound concentration 10.0 uM
[23] = biological target: Potassium voltage-gated channel subfamily V member 1 (Rattus norvegicus) (UniProt P97557); test: K+/VOLT/RA Eurofins SafetyScreen44 (BI); conditions: Compound concentration 10.0 uM
[24] = biological target: Androgen receptor (Homo sapiens) (UniProt P10275); test: ANDROGEN/H Eurofins SafetyScreen44 (BI); conditions: Compound concentration 10.0 uM
[25] = biological target: Gamma-aminobutyric acid receptor subunit alpha-1 (Rattus norvegicus) (UniProt P62813); test: BZD/CENTR/R Eurofins SafetyScreen44 (BI); conditions: Compound concentration 10.0 uM
[26] = biological target: Glucocorticoid receptor (Homo sapiens) (UniProt P04150); test: GCORTICOID/H Eurofins SafetyScreen44 (BI); conditions: Compound concentration 10.0 uM
[27] = biological target: Vasopressin V1a receptor (Homo sapiens) (UniProt P37288); test: V1A/HUM Eurofins SafetyScreen44 (BI); conditions: Compound concentration 10.0 uM
[28] = biological target: cGMP-inhibited 3',5'-cyclic phosphodiesterase 3A (Homo sapiens) (UniProt Q14432); test: PDE3A Eurofins SafetyScreen44 (BI); conditions: Compound concentration 10.0 uM
[29] = biological target: D(4) dopamine receptor (Homo sapiens) (UniProt P21917); conditions: Compound concentration 10.0 uM
[30] = biological target: T2, 5-hydroxytryptamine receptor 3A (Homo sapiens) (UniProt P46098); test: 5HT3/H Eurofins SafetyScreen44 (BI); conditions: Compound concentration 10.0 uM
T2 sequence (whole entry): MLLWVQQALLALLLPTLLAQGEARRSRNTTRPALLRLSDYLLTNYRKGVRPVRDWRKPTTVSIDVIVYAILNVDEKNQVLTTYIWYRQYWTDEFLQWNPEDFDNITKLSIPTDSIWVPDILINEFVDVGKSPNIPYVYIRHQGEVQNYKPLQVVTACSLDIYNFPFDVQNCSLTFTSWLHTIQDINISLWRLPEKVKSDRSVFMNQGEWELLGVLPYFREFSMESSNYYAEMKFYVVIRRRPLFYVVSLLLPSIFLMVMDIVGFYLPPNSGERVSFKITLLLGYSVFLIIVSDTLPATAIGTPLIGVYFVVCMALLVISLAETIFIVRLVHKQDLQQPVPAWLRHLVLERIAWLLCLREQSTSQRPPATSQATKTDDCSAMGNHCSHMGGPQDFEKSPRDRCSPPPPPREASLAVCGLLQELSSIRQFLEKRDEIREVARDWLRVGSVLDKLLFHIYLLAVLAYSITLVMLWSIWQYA

5-hydroxytryptamine receptor 2B (Homo sapiens), sequence (P41595 whole entry): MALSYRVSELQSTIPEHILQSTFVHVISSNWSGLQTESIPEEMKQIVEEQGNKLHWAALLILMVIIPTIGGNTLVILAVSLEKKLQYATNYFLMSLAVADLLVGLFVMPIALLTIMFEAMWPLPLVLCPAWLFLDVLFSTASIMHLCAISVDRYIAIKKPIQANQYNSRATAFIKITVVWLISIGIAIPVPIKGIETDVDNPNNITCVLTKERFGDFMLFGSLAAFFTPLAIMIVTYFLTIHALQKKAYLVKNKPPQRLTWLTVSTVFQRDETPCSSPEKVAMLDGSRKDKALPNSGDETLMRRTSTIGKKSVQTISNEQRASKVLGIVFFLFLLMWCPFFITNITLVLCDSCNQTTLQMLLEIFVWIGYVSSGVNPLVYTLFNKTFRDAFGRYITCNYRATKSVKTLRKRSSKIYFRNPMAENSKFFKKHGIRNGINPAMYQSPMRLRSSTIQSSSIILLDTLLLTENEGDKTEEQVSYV
D(4) dopamine receptor (Homo sapiens), sequence (P21917 whole entry): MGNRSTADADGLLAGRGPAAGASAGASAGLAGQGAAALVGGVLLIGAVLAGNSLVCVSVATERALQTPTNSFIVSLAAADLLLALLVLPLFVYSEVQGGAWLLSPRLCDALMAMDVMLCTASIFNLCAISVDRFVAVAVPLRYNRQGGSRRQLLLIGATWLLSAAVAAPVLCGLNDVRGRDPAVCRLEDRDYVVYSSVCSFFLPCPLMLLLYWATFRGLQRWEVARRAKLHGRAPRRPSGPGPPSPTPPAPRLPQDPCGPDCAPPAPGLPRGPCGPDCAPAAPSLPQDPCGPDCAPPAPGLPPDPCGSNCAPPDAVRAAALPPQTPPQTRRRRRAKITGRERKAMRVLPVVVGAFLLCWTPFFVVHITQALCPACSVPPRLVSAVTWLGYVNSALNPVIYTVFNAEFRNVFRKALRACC
Muscarinic acetylcholine receptor M3, sequence (P20309 whole entry): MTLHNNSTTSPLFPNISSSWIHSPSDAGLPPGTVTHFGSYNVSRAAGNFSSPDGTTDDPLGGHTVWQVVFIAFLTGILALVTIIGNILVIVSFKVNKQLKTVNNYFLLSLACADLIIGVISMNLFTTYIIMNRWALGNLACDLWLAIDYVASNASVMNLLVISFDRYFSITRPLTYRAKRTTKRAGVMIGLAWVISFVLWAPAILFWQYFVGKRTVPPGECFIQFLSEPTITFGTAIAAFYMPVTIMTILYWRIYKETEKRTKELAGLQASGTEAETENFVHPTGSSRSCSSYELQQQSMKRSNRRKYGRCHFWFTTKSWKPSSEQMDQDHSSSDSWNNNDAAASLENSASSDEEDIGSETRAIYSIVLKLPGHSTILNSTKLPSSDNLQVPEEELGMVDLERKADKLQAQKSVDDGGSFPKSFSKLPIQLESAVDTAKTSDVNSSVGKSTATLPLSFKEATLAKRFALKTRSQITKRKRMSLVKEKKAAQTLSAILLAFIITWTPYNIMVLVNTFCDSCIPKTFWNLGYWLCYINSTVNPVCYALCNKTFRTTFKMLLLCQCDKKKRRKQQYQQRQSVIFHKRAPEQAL
Gastrin/cholecystokinin type B receptor (Homo sapiens), sequence (P32239 whole entry): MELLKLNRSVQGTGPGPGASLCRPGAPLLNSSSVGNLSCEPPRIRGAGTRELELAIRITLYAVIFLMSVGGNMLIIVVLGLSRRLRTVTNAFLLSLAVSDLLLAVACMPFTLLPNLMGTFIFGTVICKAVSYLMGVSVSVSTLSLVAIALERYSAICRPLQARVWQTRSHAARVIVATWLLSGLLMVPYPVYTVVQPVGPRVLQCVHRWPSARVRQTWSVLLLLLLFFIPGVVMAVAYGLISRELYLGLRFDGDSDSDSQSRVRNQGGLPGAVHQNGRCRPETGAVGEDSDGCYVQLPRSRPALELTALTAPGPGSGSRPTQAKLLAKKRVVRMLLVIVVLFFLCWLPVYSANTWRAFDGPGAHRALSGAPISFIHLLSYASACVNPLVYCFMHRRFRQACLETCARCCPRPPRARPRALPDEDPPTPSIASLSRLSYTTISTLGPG
cGMP-inhibited 3',5'-cyclic phosphodiesterase 3A (Homo sapiens), sequence (Q14432 whole entry): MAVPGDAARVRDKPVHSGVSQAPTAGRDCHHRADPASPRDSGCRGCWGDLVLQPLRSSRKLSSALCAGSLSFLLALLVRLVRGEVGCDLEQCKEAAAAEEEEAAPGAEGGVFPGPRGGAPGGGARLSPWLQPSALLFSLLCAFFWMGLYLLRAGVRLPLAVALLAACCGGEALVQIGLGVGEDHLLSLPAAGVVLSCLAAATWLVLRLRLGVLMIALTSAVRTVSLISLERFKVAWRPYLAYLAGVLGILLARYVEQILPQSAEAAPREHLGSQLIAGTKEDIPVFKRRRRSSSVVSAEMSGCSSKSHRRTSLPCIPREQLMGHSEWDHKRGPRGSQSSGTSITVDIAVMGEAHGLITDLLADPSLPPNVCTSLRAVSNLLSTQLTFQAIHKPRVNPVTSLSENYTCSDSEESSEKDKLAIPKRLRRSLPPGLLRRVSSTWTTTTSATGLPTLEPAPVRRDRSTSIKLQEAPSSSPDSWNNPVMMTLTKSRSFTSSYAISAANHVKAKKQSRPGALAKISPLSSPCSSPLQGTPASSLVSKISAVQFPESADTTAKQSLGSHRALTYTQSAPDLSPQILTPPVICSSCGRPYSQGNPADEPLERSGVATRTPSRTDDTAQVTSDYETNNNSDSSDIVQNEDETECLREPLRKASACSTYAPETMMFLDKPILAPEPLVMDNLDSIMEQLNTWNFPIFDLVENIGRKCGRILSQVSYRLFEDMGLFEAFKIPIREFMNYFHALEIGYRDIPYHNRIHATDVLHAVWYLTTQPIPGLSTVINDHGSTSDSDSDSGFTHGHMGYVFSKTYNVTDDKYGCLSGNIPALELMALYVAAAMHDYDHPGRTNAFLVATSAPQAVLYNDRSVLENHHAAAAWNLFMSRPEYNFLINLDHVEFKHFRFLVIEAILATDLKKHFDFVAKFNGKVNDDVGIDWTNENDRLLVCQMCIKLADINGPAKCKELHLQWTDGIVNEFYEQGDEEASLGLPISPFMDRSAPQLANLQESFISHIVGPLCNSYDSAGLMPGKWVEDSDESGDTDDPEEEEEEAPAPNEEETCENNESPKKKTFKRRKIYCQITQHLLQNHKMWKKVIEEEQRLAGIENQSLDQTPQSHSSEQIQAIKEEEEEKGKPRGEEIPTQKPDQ
B1 bradykinin receptor (Homo sapiens), sequence (P46663 whole entry): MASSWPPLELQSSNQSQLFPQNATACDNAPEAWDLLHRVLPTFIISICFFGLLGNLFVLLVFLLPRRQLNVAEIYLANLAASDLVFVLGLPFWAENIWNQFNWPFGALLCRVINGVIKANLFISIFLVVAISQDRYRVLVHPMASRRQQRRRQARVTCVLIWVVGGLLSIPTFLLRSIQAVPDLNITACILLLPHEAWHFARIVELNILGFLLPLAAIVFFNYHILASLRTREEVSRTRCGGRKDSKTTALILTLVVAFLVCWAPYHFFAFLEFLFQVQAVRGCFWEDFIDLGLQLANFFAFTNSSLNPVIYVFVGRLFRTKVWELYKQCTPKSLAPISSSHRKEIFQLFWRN
Endothelin receptor type B (Homo sapiens), sequence (P24530 whole entry): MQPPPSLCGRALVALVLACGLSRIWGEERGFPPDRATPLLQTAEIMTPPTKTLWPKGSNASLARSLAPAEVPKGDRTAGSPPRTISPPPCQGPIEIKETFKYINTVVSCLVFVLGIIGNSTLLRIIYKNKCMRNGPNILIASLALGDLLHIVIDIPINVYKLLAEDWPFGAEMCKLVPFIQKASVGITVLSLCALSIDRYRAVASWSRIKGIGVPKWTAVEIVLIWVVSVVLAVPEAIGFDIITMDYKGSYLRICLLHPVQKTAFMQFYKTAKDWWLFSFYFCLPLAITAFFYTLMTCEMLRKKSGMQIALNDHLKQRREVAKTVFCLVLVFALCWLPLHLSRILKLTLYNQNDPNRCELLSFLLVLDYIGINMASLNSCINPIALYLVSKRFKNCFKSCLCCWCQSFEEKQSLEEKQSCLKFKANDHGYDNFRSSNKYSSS
Vasopressin V1a receptor (Homo sapiens), sequence (P37288 whole entry, looked up): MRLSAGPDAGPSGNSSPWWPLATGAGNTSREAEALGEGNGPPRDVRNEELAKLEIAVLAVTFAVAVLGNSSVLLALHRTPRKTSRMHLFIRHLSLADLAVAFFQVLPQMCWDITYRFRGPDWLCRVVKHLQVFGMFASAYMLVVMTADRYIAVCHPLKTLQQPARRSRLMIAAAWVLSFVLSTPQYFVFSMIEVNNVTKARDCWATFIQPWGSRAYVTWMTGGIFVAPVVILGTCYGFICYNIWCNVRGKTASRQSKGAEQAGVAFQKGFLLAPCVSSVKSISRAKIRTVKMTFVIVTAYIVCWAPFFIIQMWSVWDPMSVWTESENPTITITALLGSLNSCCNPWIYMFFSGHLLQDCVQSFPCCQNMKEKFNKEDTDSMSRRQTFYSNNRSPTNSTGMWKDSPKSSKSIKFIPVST
Estrogen receptor (Homo sapiens), sequence (P03372 whole entry): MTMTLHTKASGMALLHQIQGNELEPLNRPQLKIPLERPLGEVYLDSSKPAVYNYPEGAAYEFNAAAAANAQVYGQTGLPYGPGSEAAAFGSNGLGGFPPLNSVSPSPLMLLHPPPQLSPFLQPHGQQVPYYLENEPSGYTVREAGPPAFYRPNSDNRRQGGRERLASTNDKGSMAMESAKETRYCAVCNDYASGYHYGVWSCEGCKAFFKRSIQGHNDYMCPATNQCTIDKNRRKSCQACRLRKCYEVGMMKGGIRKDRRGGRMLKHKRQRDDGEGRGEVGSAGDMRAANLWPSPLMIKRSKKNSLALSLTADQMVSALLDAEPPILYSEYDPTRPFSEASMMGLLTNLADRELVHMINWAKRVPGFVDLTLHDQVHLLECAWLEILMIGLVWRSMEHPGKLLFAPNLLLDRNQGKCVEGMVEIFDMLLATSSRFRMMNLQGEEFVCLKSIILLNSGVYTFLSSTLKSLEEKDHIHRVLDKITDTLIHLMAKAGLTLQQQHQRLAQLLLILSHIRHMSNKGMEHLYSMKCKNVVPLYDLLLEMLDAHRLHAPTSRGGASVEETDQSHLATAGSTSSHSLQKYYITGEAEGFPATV

Cc1cc(OCCC(C)(C)O)cc(C)c1-c1ccc(F)c2c1CC[C@H]2Oc1ccc2c(c1)OC[C@H]2CC(=O)O
residual activity [1]: 91% | residual activity [2]: 96% | Ki [3]: > 10 µM | pKi [3]: < 5 | residual activity [4]: 81% | residual activity [5]: 103% | inhibition [6]: 3.41% | residual activity [7]: 68% | residual activity [8]: 82% | residual activity [9]: 103% | residual activity [10]: 113% | activity at 10 µM [11]: 100% (not active) | residual activity [12]: 105% | residual activity [13]: 108% | Ki [14]: > 10 µM | pKi [14]: < 5 | residual activity ([15]; Compound concentration 0.1 uM): 93% | residual activity ([15]; Compound concentration 0.3 uM): 90% | residual activity ([15]; Compound concentration 1.0 uM): 83% | residual activity ([15]; Compound concentration 3.0 uM): 64% | residual activity ([15]; Compound concentration 10.0 uM): 5.5% | residual activity [16]: 63%

COCCCS(=O)(=O)c1cc(C)c(-c2ccc(F)c3c2CC[C@H]3Oc2ccc3c(c2)OC[C@H]3CC(=O)O)c(C)c1
residual activity [17]: 84% | residual activity [18]: 99% | residual activity [19]: 112% | residual activity [20]: 102% | residual activity [21]: 102% | residual activity [22]: 77% | residual activity [23]: 108% | residual activity [24]: 102% | residual activity [25]: 109% | residual activity [26]: 43% | residual activity [27]: 90% | residual activity [28]: 100% | inhibition [29]: 12.9% | residual activity [30]: 106%

— ChEMBL document CHEMBL5058643, “Data for DCP probe BI-2081” (2022)
